Experimental data: the kinase profiling compilation of Christmann-Franck et al. (2016)

What was measured:
Assay in all cases: KINOMEscan competition binding
Details in all cases: compound 10.0 µM
ACVR1 (human) = ACVR1 (human) (UniProt Q04771)
ACVRL1 (human) = ACVRL1 (human) (UniProt P37023)
AKT1 (human) = AKT1 (human) (UniProt P31749)
AXL (human) = AXL (human) (UniProt P30530)
CAMK4 (human) = CAMK4 (human) (UniProt Q16566)
CAMKK2 (human) = CAMKK2 (human) (UniProt Q96RR4)
CDK11B (human) = CDK11B (human) (UniProt P21127)
CDK14 (human) = CDK14 (human) (UniProt O94921)
CLK2 (human) = CLK2 (human) (UniProt P49760)
CLK3 (human) = CLK3 (human) (UniProt P49761)
CSNK1E (human) = CSNK1E (human) (UniProt P49674)
CSNK1G2 (human) = CSNK1G2 (human) (UniProt P78368)
DYRK1A (human) = DYRK1A (human) (UniProt Q13627)
EPHA2 (human) = EPHA2 (human) (UniProt P29317)
EPHA4 (human) = EPHA4 (human) (UniProt P54764)
EPHB3 (human) = EPHB3 (human) (UniProt P54753)
ERBB2 (human) = ERBB2 (human) (UniProt P04626)
GRK1 (human) = GRK1 (human) (UniProt Q15835)
HCK (human) = HCK (human) (UniProt P08631)
HIPK2 (human) = HIPK2 (human) (UniProt Q9H2X6)
ITK (human) = ITK (human) (UniProt Q08881)
LTK (human) = LTK (human) (UniProt P29376)
MAP3K11 (human) = MAP3K11 (human) (UniProt Q16584)
MAP3K2 (human) = MAP3K2 (human) (UniProt Q9Y2U5)
MAP3K3 (human) = MAP3K3 (human) (UniProt Q99759)
MAP4K5 (human) = MAP4K5 (human) (UniProt Q9Y4K4)
MAPK11 (human) = MAPK11 (human) (UniProt Q15759)
MARK1 (human) = MARK1 (human) (UniProt Q9P0L2)
MARK4 (human) = MARK4 (human) (UniProt Q96L34)
MAST1 (human) = MAST1 (human) (UniProt Q9Y2H9)
MATK (human) = MATK (human) (UniProt P42679)
MYLK4 (human) = MYLK4 (human) (UniProt Q86YV6)
NUAK2 (human) = NUAK2 (human) (UniProt Q9H093)
PIK3CB (human) = PIK3CB (human) (UniProt P42338)
PIM1 (human) = PIM1 (human) (UniProt P11309)
PRKCD (human) = PRKCD (human) (UniProt Q05655)
PTK2 (human) = PTK2 (human) (UniProt Q05397)
STK32C (human) = STK32C (human) (UniProt Q86UX6)
STK36 (human) = STK36 (human) (UniProt Q9NRP7)
TRPM6 (human) = TRPM6 (human) (UniProt Q9BX84)

Chain of AXL (human) (P30530 whole entry, looked up): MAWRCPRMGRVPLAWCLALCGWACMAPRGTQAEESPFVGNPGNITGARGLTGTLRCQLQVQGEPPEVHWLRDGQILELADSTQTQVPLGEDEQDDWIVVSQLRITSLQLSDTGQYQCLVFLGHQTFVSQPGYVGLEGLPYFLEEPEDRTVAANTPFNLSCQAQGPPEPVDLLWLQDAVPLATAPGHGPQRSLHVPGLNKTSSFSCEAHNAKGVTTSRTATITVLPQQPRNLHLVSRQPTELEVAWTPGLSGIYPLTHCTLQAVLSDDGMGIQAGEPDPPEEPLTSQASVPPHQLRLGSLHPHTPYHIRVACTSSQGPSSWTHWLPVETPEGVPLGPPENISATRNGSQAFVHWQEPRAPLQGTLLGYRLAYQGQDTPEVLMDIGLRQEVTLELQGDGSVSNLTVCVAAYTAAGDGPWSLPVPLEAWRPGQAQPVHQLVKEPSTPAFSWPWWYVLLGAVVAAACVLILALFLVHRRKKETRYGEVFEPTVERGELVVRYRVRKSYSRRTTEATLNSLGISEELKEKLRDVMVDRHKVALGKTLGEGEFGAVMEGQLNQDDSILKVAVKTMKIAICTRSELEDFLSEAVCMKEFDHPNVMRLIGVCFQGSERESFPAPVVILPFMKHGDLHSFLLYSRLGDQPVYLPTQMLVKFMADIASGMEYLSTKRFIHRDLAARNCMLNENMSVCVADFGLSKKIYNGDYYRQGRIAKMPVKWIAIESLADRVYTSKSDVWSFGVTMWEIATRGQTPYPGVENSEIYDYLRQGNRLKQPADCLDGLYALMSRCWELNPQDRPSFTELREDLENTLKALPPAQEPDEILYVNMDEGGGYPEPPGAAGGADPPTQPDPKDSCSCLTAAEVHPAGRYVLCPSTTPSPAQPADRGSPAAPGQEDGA
Chain of PIM1 (human) (P11309 whole entry, looked up): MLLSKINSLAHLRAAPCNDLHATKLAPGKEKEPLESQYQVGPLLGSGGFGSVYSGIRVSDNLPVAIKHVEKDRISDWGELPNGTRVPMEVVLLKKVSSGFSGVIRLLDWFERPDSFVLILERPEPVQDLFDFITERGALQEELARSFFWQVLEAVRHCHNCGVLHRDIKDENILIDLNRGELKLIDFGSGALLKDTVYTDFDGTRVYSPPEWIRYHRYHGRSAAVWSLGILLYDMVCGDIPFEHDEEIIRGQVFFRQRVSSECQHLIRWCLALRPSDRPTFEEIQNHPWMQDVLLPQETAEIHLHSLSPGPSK
Chain of ITK (human) (Q08881 whole entry, looked up): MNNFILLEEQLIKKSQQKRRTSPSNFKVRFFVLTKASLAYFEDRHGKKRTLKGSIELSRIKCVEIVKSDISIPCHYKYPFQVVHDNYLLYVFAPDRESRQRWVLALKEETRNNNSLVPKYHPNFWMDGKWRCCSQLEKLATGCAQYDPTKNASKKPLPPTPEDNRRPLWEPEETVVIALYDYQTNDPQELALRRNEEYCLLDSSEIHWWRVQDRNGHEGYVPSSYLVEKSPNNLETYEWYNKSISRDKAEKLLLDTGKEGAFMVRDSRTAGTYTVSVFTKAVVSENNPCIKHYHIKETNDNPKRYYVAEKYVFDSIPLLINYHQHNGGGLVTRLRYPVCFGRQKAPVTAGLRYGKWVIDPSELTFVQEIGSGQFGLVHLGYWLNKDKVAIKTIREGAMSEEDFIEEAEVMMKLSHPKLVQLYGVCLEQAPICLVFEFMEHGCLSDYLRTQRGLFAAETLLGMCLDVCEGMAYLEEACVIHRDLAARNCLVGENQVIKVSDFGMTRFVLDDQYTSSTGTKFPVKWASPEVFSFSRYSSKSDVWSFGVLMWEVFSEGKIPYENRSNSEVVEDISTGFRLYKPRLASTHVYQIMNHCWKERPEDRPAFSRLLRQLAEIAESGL
Chain of ACVR1 (human) (Q04771 whole entry, looked up): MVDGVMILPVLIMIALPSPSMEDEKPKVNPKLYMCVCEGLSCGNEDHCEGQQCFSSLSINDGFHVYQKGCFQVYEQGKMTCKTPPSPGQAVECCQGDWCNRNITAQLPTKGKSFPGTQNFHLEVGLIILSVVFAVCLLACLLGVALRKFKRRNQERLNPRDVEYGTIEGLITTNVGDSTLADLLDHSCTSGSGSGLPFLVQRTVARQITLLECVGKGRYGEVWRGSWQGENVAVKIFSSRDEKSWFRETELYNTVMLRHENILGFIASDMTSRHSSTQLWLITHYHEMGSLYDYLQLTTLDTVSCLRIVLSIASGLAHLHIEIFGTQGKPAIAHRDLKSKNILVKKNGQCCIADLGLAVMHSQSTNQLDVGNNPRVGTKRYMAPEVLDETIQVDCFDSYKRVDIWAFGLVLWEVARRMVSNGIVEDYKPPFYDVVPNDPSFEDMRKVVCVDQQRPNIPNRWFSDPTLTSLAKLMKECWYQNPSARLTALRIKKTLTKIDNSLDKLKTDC
Chain of MAP3K11 (human) (Q16584 whole entry, looked up): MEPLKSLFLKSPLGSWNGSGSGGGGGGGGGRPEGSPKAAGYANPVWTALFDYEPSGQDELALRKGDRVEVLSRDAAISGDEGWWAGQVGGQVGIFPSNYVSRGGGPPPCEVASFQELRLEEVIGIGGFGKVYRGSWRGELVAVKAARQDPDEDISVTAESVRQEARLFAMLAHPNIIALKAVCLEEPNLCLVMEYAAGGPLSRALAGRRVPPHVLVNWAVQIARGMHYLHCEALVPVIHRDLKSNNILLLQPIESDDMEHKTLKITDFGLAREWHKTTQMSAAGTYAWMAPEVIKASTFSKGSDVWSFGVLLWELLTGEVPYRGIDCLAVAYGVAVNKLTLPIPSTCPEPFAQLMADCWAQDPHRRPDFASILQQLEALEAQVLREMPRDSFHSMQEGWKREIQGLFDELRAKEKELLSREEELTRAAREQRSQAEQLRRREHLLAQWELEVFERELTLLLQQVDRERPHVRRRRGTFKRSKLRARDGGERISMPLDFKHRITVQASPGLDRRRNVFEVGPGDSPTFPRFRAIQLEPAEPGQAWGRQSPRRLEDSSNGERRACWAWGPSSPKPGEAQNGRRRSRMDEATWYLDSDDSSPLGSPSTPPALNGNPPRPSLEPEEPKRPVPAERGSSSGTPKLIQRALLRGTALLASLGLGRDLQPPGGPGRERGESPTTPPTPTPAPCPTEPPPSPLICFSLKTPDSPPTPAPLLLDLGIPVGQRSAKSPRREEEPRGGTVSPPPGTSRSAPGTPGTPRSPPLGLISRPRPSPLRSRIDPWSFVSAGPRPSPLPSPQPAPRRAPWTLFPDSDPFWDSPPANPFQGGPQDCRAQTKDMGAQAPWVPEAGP
Chain of HIPK2 (human) (Q9H2X6 whole entry, looked up): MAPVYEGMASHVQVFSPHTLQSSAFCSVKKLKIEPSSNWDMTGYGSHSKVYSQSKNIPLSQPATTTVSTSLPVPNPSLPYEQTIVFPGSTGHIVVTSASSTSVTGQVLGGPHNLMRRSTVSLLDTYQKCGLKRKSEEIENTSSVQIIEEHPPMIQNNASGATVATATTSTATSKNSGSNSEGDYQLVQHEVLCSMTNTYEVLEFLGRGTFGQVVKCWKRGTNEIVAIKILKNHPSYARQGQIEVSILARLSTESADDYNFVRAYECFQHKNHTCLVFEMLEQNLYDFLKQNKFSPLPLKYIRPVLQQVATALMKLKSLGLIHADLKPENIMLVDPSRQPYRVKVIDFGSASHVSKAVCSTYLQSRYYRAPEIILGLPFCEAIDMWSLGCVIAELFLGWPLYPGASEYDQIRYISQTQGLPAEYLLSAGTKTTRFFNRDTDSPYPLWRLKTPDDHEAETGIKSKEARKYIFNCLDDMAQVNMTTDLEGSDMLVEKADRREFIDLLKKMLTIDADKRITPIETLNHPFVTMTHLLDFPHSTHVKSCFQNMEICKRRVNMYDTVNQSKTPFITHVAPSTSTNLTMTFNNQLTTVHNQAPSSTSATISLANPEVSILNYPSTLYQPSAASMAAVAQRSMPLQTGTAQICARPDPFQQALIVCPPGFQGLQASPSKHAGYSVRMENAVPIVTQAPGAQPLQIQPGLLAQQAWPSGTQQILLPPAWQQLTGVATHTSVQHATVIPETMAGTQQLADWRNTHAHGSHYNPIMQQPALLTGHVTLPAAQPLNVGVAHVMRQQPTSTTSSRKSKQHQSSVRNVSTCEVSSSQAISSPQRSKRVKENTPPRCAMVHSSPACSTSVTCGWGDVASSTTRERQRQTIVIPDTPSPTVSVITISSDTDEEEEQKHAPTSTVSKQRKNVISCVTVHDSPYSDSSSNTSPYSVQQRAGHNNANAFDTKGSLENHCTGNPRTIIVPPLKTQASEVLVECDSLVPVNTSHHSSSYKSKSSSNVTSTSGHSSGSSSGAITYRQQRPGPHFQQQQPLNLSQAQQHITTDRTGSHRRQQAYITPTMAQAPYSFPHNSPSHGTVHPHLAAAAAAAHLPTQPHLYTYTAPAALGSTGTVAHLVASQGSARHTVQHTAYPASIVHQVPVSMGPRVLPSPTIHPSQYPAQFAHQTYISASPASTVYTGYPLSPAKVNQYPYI
Chain of ACVRL1 (human) (P37023 whole entry, looked up): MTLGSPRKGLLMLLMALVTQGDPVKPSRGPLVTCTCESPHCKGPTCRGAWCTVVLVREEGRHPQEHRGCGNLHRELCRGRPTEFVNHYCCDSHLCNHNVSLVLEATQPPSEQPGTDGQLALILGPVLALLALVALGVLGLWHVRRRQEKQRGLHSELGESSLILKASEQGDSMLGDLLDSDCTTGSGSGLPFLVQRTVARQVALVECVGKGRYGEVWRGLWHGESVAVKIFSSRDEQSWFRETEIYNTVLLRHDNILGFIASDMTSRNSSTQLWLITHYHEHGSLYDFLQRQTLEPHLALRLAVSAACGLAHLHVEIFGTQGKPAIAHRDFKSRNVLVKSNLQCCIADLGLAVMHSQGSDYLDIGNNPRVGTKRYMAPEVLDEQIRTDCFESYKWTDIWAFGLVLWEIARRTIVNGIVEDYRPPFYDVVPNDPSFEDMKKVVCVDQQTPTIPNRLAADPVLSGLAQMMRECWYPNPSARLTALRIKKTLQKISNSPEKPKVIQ

SMILES	kinase still bound, per cent of control (ACVR1 (human)) [%]	kinase still bound, per cent of control (ACVRL1 (human)) [%]	kinase still bound, per cent of control (AKT1 (human)) [%]	kinase still bound, per cent of control (AXL (human)) [%]	kinase still bound, per cent of control (CAMK4 (human)) [%]	kinase still bound, per cent of control (CAMKK2 (human)) [%]	kinase still bound, per cent of control (CDK11B (human)) [%]	kinase still bound, per cent of control (CDK14 (human)) [%]	kinase still bound, per cent of control (CLK2 (human)) [%]	kinase still bound, per cent of control (CLK3 (human)) [%]	kinase still bound, per cent of control (CSNK1E (human)) [%]	kinase still bound, per cent of control (DYRK1A (human)) [%]	kinase still bound, per cent of control (EPHA2 (human)) [%]	kinase still bound, per cent of control (EPHA4 (human)) [%]	kinase still bound, per cent of control (EPHB3 (human)) [%]	kinase still bound, per cent of control (ERBB2 (human)) [%]	kinase still bound, per cent of control (GRK1 (human)) [%]	kinase still bound, per cent of control (HCK (human)) [%]	kinase still bound, per cent of control (HIPK2 (human)) [%]	kinase still bound, per cent of control (ITK (human)) [%]	further results
CC1=C(C(=O)Nc2cc3cn[nH]c3cc2F)C(c2ccc(C(F)(F)F)cc2)CC(=O)N1 (centres undefined)	100	100	76	84	100	55	89	89	54	65	79	100	84	78	84	71	78	41	87	74	kinase still bound, per cent of control (CSNK1G2 (human)): 100%; kinase still bound, per cent of control (LTK (human)): 100%; kinase still bound, per cent of control (MAP3K11 (human)): 100%; kinase still bound, per cent of control (MAP3K2 (human)): 79%; kinase still bound, per cent of control (MAP3K3 (human)): 82%; kinase still bound, per cent of control (MAP4K5 (human)): 90%; kinase still bound, per cent of control (MAPK11 (human)): 92%; kinase still bound, per cent of control (MARK1 (human)): 100%; kinase still bound, per cent of control (MARK4 (human)): 100%; kinase still bound, per cent of control (MAST1 (human)): 77%; kinase still bound, per cent of control (MATK (human)): 68%; kinase still bound, per cent of control (MYLK4 (human)): 88%; kinase still bound, per cent of control (NUAK2 (human)): 6%; kinase still bound, per cent of control (PIK3CB (human)): 86%; kinase still bound, per cent of control (PIM1 (human)): 88%; kinase still bound, per cent of control (PRKCD (human)): 39%; kinase still bound, per cent of control (PTK2 (human)): 79%; kinase still bound, per cent of control (STK32C (human)): 48%; kinase still bound, per cent of control (STK36 (human)): 96%; kinase still bound, per cent of control (TRPM6 (human)): 70%
CCN1CCN(Cc2ccc(NC(=O)c3ccc(C)c(/C=C/c4cnc5[nH]ccc5c4OC)c3)cc2C(F)(F)F)CC1	100	100	100	4.6	100	100	8.5	72	71	100	45	63	1.7	0	4.7	0	96	0.45	41	18	kinase still bound, per cent of control (CSNK1G2 (human)): 39%; kinase still bound, per cent of control (LTK (human)): 62%; kinase still bound, per cent of control (MAP3K11 (human)): 3.6%; kinase still bound, per cent of control (MAP3K2 (human)): 0.65%; kinase still bound, per cent of control (MAP3K3 (human)): 1.4%; kinase still bound, per cent of control (MAP4K5 (human)): 3.4%; kinase still bound, per cent of control (MAPK11 (human)): 0%; kinase still bound, per cent of control (MARK1 (human)): 94%; kinase still bound, per cent of control (MARK4 (human)): 100%; kinase still bound, per cent of control (MAST1 (human)): 100%; kinase still bound, per cent of control (MATK (human)): 100%; kinase still bound, per cent of control (MYLK4 (human)): 23%; kinase still bound, per cent of control (NUAK2 (human)): 95%; kinase still bound, per cent of control (PIK3CB (human)): 100%; kinase still bound, per cent of control (PIM1 (human)): 100%; kinase still bound, per cent of control (PRKCD (human)): 49%; kinase still bound, per cent of control (PTK2 (human)): 67%; kinase still bound, per cent of control (STK32C (human)): 100%; kinase still bound, per cent of control (STK36 (human)): 0.3%; kinase still bound, per cent of control (TRPM6 (human)): 100%
CCCS(=O)(=O)Nc1ccc(F)c(C(=O)c2c[nH]c3ncc(Cl)cc23)c1F	100	100	100	40	100	79	99	100	10	80	60	76	100	100	100	78	100	19	20	99	kinase still bound, per cent of control (LTK (human)): 34%; kinase still bound, per cent of control (MAP3K11 (human)): 88%; kinase still bound, per cent of control (MAP3K2 (human)): 62%; kinase still bound, per cent of control (MAP3K3 (human)): 61%; kinase still bound, per cent of control (MAP4K5 (human)): 22%; kinase still bound, per cent of control (MAPK11 (human)): 100%; kinase still bound, per cent of control (MARK1 (human)): 74%; kinase still bound, per cent of control (MARK4 (human)): 72%; kinase still bound, per cent of control (MAST1 (human)): 100%; kinase still bound, per cent of control (MATK (human)): 90%; kinase still bound, per cent of control (MYLK4 (human)): 15%; kinase still bound, per cent of control (NUAK2 (human)): 41%; kinase still bound, per cent of control (PIK3CB (human)): 100%; kinase still bound, per cent of control (PIM1 (human)): 77%; kinase still bound, per cent of control (PRKCD (human)): 100%; kinase still bound, per cent of control (PTK2 (human)): 51%; kinase still bound, per cent of control (STK32C (human)): 86%; kinase still bound, per cent of control (STK36 (human)): 18%; kinase still bound, per cent of control (TRPM6 (human)): 99%
